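Step 1: Grow cells in 96-well plates. Step 2: Expose to compound for 48 hours at 5 concentrations. Step 3: Interpolate endpoints linearly; if unreached, use highest concentration. GI50 marks 50% less growth.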 Activity calls are given as the source filed them. No stated cut-off is given here; in the data, active = GI50 up to about 1.1 µM and inactive = higher.
Assays:
Assay in all cases: growth of human tumour cells (NCI), 48 h
Hs-578T = tested on: Hs-578T
SNB-75 = tested on: SNB-75
NCI/ADR-RES = tested on: NCI/ADR-RES
MCF7 = tested on: MCF7
SW-620 = tested on: SW-620
UACC-257 = tested on: UACC-257
SK-OV-3 = tested on: SK-OV-3
A498 = tested on: A498
SF-268 = tested on: SF-268
U-251 = tested on: U-251
UO-31 = tested on: UO-31
HCT-15 = tested on: HCT-15
T47D = tested on: T47D
MDA-MB-231 = tested on: MDA-MB-231
RXF 393 = tested on: RXF 393
SN12C = tested on: SN12C
NCI-H460 = tested on: NCI-H460
IGROV-1 = tested on: IGROV-1
OVCAR-4 = tested on: OVCAR-4
EKVX = tested on: EKVX
DU-145 = tested on: DU-145
BT-549 = tested on: BT-549
SNB-19 = tested on: SNB-19
MDA-MB-435 = tested on: MDA-MB-435
SK-MEL-28 = tested on: SK-MEL-28
UACC-62 = tested on: UACC-62
SK-MEL-5 = tested on: SK-MEL-5
SK-MEL-2 = tested on: SK-MEL-2
NCI-H226 = tested on: NCI-H226
COLO 205 = tested on: COLO 205
HCC 2998 = tested on: HCC 2998
NCI-H23 = tested on: NCI-H23
786-0 = tested on: 786-0
MDA-N = tested on: MDA-N
OVCAR-3 = tested on: OVCAR-3
OVCAR-5 = tested on: OVCAR-5
CAKI-1 = tested on: CAKI-1
KM12 = tested on: KM12
SF-539 = tested on: SF-539
ACHN = tested on: ACHN
NCI-H522 = tested on: NCI-H522
HCT-116 = tested on: HCT-116
HT-29 = tested on: HT-29
OVCAR-8 = tested on: OVCAR-8
Malme-3M = tested on: Malme-3M
RPMI-8226 = tested on: RPMI-8226
HOP-62 = tested on: HOP-62
M14 = tested on: M14
MOLT-4 = tested on: MOLT-4
TK-10 = tested on: TK-10
PC-3 = tested on: PC-3
A549 = tested on: A549
HOP-92 = tested on: HOP-92
SF-295 = tested on: SF-295
LOX IMVI = tested on: LOX IMVI
SR = tested on: SR
K562 = tested on: K562
HL-60 = tested on: HL-60

Measured: GI50

C=CCN1CCC(OC(=O)C(O)(C#CC)C2CCCC2)CC1 (configuration not stated)
> 100 µM: HCT-15
inactive: Hs-578T > 100 µM | SNB-75 > 77.3 µM | NCI/ADR-RES > 100 µM | MCF7 > 100 µM | SW-620 > 100 µM | UACC-257 > 100 µM | SK-OV-3 > 100 µM | A498 > 100 µM | SF-268 > 100 µM | U-251 > 100 µM | UO-31 > 100 µM | T47D > 100 µM | MDA-MB-231 > 100 µM | RXF 393 > 100 µM | SN12C > 100 µM | NCI-H460 > 100 µM | IGROV-1 > 100 µM | OVCAR-4 > 100 µM | EKVX > 100 µM | DU-145 > 100 µM | BT-549 > 100 µM | SNB-19 > 100 µM | MDA-MB-435 > 100 µM | SK-MEL-28 > 100 µM | UACC-62 > 100 µM | SK-MEL-5 > 100 µM | SK-MEL-2 > 100 µM | NCI-H226 > 100 µM | COLO 205 > 100 µM | HCC 2998 > 100 µM | NCI-H23 > 100 µM | 786-0 > 100 µM | MDA-N > 100 µM | OVCAR-3 > 100 µM | OVCAR-5 > 100 µM | CAKI-1 > 100 µM | KM12 > 100 µM | SF-539 > 100 µM | ACHN > 100 µM | NCI-H522 > 100 µM | HCT-116 > 100 µM | HT-29 > 100 µM | OVCAR-8 > 100 µM | Malme-3M > 100 µM | RPMI-8226 > 100 µM | HOP-62 > 100 µM | M14 > 100 µM | MOLT-4 > 100 µM | TK-10 > 100 µM | PC-3 > 100 µM | A549 > 100 µM | HOP-92 > 100 µM | SF-295 > 100 µM | LOX IMVI > 100 µM

O=C(Nc1ccccc1)c1cc(S(=O)(=O)NC2=Nc3ccc(Cl)cc3C(c3ccccc3)N2)c(SSc2cc(Cl)c(C(=O)Nc3ccccc3)cc2S(=O)(=O)NC2=Nc3ccc(Cl)cc3C(c3ccccc3)N2)cc1Cl (configuration not stated)
inactive: Hs-578T > 100 µM | SNB-75 > 100 µM | NCI/ADR-RES > 100 µM | MCF7 > 100 µM | SW-620 > 100 µM | UACC-257 > 100 µM | SK-OV-3 > 100 µM | SF-268 > 100 µM | U-251 > 100 µM | UO-31 > 100 µM | SR 13.6 µM | T47D > 100 µM | MDA-MB-231 > 45.3 µM | RXF 393 > 100 µM | SN12C > 100 µM | NCI-H460 > 100 µM | IGROV-1 > 100 µM | OVCAR-4 > 100 µM | EKVX > 100 µM | K562 38 µM | DU-145 > 100 µM | BT-549 > 100 µM | SNB-19 > 100 µM | MDA-MB-435 > 100 µM | SK-MEL-28 > 100 µM | UACC-62 > 89.9 µM | SK-MEL-5 > 100 µM | SK-MEL-2 > 100 µM | NCI-H226 > 100 µM | COLO 205 > 100 µM | HCC 2998 > 100 µM | NCI-H23 > 100 µM | 786-0 > 100 µM | MDA-N > 100 µM | OVCAR-3 > 100 µM | OVCAR-5 > 61.5 µM | CAKI-1 > 100 µM | KM12 > 100 µM | SF-539 > 100 µM | ACHN > 100 µM | NCI-H522 > 100 µM | HCT-116 > 100 µM | HT-29 > 100 µM | OVCAR-8 > 100 µM | Malme-3M > 100 µM | RPMI-8226 55.3 µM | HOP-62 > 80.5 µM | M14 > 57.4 µM | MOLT-4 28.4 µM | TK-10 > 100 µM | PC-3 > 100 µM | HL-60 > 36.1 µM | A549 > 100 µM | HOP-92 > 100 µM | SF-295 > 100 µM | LOX IMVI > 100 µM
> 100 µM: HCT-15
